Laboratory results reported in patent publication US10624920B2, “Use of alginate oligomers in combating biofilms” (Algipharma AS, priority 2007, dated 2020).

Tests used:
Format in all cases: cell-based
[1] = system: Pseudomonas aeruginosa biofilms; assay: MBEC assay, Pseudomonas biofilms generated 6 hr with mucin, pretreated overnight with alginate oligomer and mucin, then antibiotic; details: 6 hr biofilm with mucin
Experimental: (§1) The MBEC method used was adapted from Moskowitz S M, et al (2004) J Clin Microbiol 42:1915-1922. After retrieval from −80° C. storage, bacterial isolates were grown on BA and then grown overnight in TSB. After dilution of the bacterial cultures to 0.5 McFarland in CAMHB with or without mucin (2.5 g/l), 100 μl was transferred to the wells of a flat-bottom 96-well microtiter plate. In Example 3, bacterial cultures were diluted to 0.5 McFarland in CAMHB with mucin (2.5 g/1) and alginate and 100 μl was transferred to the wells of a flat-bottom 96-well microtiter plate
(§2) Plates were then wrapped in parafilm to prevent dehydration and incubated at 37° C. to allow biofilm formation. Incubation times and conditions varied as described below.
(§3) After biofilm formation, planktonic cells and supernatant were removed and each well was then washed with sterile phosphate buffered saline (PBS). After washing, cells were treated with combinations of alginates and/or antibiotics with or without mucin (2.5 g/l) in 100 μl CAMHB. Plates were then wrapped in parafilm and incubated at 37° C. with gentle tilting. Incubation times and conditions varied as described below. The antibiotics and concentration ranges used are shown below.
(§4) Wells were washed with PBS and 100 μl of each concentration of a serial dilution of antibiotic in CAMHB was then added in duplicate. Plates were again wrapped in parafilm and incubated at 37° C. with gentle tilting overnight.
(§5) In all MBEC assays final cell number was assessed as follows. Wells were washed with PBS and biofilms resuspended in 100 μl CAMHB by vigorous pipetting. The optical density at 620 nm (OD620) was measured on a microplate reader (FLUOstar OPTIMA, BMG LABTECH) immediately (0 h) and after incubation at 37° C. at 6 h and 24 h.
(§6) The MBEC value is that concentration of antibiotic that inhibits all growth of the bacteria in the test sample. Bacterial growth is measured by an increase in the absorbance of the sample. Therefore, a reduction in MBEC value is an indication that the sensitivity of the sample to the antibiotic has been increased (i.e. less antibiotic is needed to prevent bacterial growth).
The MBEC assay described above was followed with mucin present throughout. Biofilms were generated in the presence of mucin during a 6 hour incubation, washed and incubated with G-fragments and mucin overnight. After washing with PBS the cultures were exposed to antibiotics (amikacin, tobramycin, oxytetracycline or a combination of amikacin and oxytetracycline) without mucin. Results are shown graphically in FIG. 4 and in tabulated form in Tables 6 and 7. […] In fact, 6% G fragments caused a the 6 hr MBEC value for oxytetracycline to drop to ⅛th of the control value. The 24 hr MBEC values for amikacin and tobramycin were halved. […]

[2] = system: Pseudomonas aeruginosa biofilms; assay: MBEC assay, Pseudomonas biofilms generated overnight in the presence of mucin and G-fragments, then antibiotic
Experimental: as §1, §2, §3, §4, §5, §6
The MBEC assay described above was followed. Biofilms were generated in plates overnight in the presence of mucin and 0, 1, 2 or 6% G fragments. After washing, biofilms were exposed to oxytetracycline (without mucin) overnight. […] 6 hr MBEC values were halved when 2% and 6% G fragments were used.

[3] = system: Pseudomonas aeruginosa biofilms; assay: MBEC assay, overnight Pseudomonas biofilms pretreated overnight with G-fragments and mucin, then antibiotic; details: overnight biofilm, mucin 2.5 g/L
Experimental: as §1, §2, §3, §4, §5, §6
The MBEC assay described above was followed. Biofilms were generated in plates overnight without mucin. Following a PBS wash, the biofilms were incubated with 0, 1, 2 or 6% G-fragments and mucin overnight. After washing with PBS cells were incubated overnight with antibiotics (amikacin or oxytetracycline) and without mucin. […] 6 hr MBEC values for amikacin and oxytetracycline were halved by 1% G fragments and quartered by 2 and 6% G fragments. 24 hr MBEC values for oxytetracycline were halved by all concentrations of G fragments. 24 hr MBEC values for amikacin were reduced although it was not possible to quantify this reduction.

[4] = exposed to 0 G-fragments overnight
[5] = exposed to 6% G-fragments overnight
[6] = biofilm generated with mucin 2.5 g/L and G-fragments 0
[7] = biofilm generated with mucin 2.5 g/L and G-fragments 1%
[8] = biofilm generated with mucin 2.5 g/L and G-fragments 2%
[9] = biofilm generated with mucin 2.5 g/L and G-fragments 6%

| SMILES | MBEC value at 6 hr after overnight exposure to antibiotic [1, 4] | MBEC value at 24 hr after overnight exposure to antibiotic [1, 4] | MBEC value at 6 hr after overnight exposure to antibiotic [1, 5] | MBEC value at 24 hr after overnight exposure to antibiotic [1, 5] | MBEC value at 6 hr after overnight exposure to antibiotic [2, 6] | MBEC value at 24 hr after overnight exposure to antibiotic [2, 6] | MBEC value at 6 hr after overnight exposure to antibiotic [2, 7] | MBEC value at 24 hr after overnight exposure to antibiotic [2, 7] | MBEC value at 6 hr after overnight exposure to antibiotic [2, 8] | MBEC value at 24 hr after overnight exposure to antibiotic [2, 8] | MBEC value at 6 hr after overnight exposure to antibiotic [2, 9] | MBEC value at 24 hr after overnight exposure to antibiotic [2, 9] | MBEC value at 6 hours after overnight exposure to antibiotic ([3]; G-fragments 0) | MBEC value at 24 hours after overnight exposure to antibiotic ([3]; G-fragments 0) | MBEC value at 6 hours after overnight exposure to antibiotic ([3]; G-fragments 1%) | MBEC value at 24 hours after overnight exposure to antibiotic ([3]; G-fragments 1%) | MBEC value at 6 hours after overnight exposure to antibiotic ([3]; G-fragments 2%) | MBEC value at 24 hours after overnight exposure to antibiotic ([3]; G-fragments 2%) | MBEC value at 6 hours after overnight exposure to antibiotic ([3]; G-fragments 6%) | MBEC value at 24 hours after overnight exposure to antibiotic ([3]; G-fragments 6%) |
| --- | --- | --- | --- | --- | --- | --- | --- | --- | --- | --- | --- | --- | --- | --- | --- | --- | --- | --- | --- | --- |
| CN(C)[C@@H]1C(O)=C(C(N)=O)C(=O)[C@@]2(O)C(O)=C3C(=O)c4c(O)cccc4[C@@](C)(O)[C@H]3[C@H](O)[C@@H]12 [Oxytetracycline, oxytetracycline] | 512 µg/mL | 1024 µg/mL | 64 µg/mL | 1024 µg/mL | 512 µg/mL | 4096 µg/mL | 512 µg/mL | 2048 µg/mL | 256 µg/mL | 2048 µg/mL | 256 µg/mL | 2048 µg/mL | 512 µg/mL | 2048 µg/mL | 256 µg/mL | 1024 µg/mL | 128 µg/mL | 1024 µg/mL | 128 µg/mL | 1024 µg/mL |
| NCC[C@H](O)C(=O)N[C@@H]1C[C@H](N)[C@@H](O[C@H]2O[C@H](CN)[C@@H](O)[C@H](O)[C@H]2O)[C@H](O)[C@H]1O[C@H]1O[C@H](CO)[C@@H](O)[C@H](N)[C@H]1O [Amikacin, amikacin] | 64 µg/mL | >4096 µg/mL | 16 µg/mL | 4096 µg/mL | – | – | – | – | – | – | – | – | 2048 µg/mL | >4096 µg/mL | 1024 µg/mL | 4096 µg/mL | 512 µg/mL | 4096 µg/mL | 512 µg/mL | 4096 µg/mL |
| NC[C@H]1O[C@H](O[C@H]2[C@H](O)[C@@H](O[C@H]3O[C@H](CO)[C@@H](O)[C@H](N)[C@H]3O)[C@H](N)C[C@@H]2N)[C@H](N)C[C@@H]1O [Tobramycin, tobramycin] | 32 µg/mL | 512 µg/mL | 8 µg/mL | 256 µg/mL | – | – | – | – | – | – | – | – | – | – | – | – | – | – | – | – |
